Laboratory results reported in the supplement of paper PMC10307832.

How the values were obtained:
Test in all cases: relative viability (nuclei count vs DMSO), 5 days (fraction); higher = more cells survive
201T = test system: 201T
Method in brief: (§1)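 Lung cancer cell lines in 1536-well plates were dosed by pin tool the day after seeding, either with one drug alone or with a fixed anchor-drug dose plus five library-drug doses (not always all listed) in √10 steps. After 5 days, cells were fixed and their nuclei stained in one step (final 0.05% Triton X-100, 1% formaldehyde, 1 ug/ml Hoechst), then counted on 4× images. Relative viability is the nuclei count in treated wells divided by that in vehicle wells. Values are medians of duplicate plates.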

COR-L 105 = test system: COR-L 105
Method in brief: as §1

ChaGo-K-1 = test system: ChaGo-K-1
Method in brief: as §1

EKVX = test system: EKVX
Method in brief: as §1

H3255 = test system: H3255
Method in brief: as §1

HARA = test system: HARA
Method in brief: as §1

HCC-827 = test system: HCC-827
Method in brief: as §1

HOP-62 = test system: HOP-62
Method in brief: as §1

LCLC-103H = test system: LCLC-103H
Method in brief: as §1

LOU-NH91 = test system: LOU-NH91
Method in brief: as §1

NCI-H1975 = test system: NCI-H1975
Method in brief: as §1

NCI-H2126 = test system: NCI-H2126
Method in brief: as §1

NCI-H23 = test system: NCI-H23
Method in brief: as §1

NCI-H2405 = test system: NCI-H2405
Method in brief: as §1

NCI-H3122 = test system: NCI-H3122
Method in brief: as §1

NCI-H596 = test system: NCI-H596
Method in brief: as §1

NCI-H650 = test system: NCI-H650
Method in brief: as §1

NCI-H661 = test system: NCI-H661
Method in brief: as §1

NCI-H727 = test system: NCI-H727
Method in brief: as §1

PC-3 [JPC-3] = test system: PC-3 [JPC-3]
Method in brief: as §1

SK-LU-1 = test system: SK-LU-1
Method in brief: as §1

SW 900 = test system: SW 900
Method in brief: as §1

CN1CCN(CCOc2cc(OC3CCOCC3)c3c(Nc4c(Cl)ccc5c4OCO5)ncnc3c2)CC1 [Saracatinib] + Nc1ncn([C@H]2C[C@H](O)[C@@H](CO)O2)c(=O)n1 [Decitabine] (partner 2 µM)
relative viability (201T; first compound 0.02 µM): 0.832 | relative viability (201T; first compound 0.2 µM): 0.644 | relative viability (201T; first compound 0.6325 µM): 0.75 | relative viability (201T; first compound 2 µM): 0.71 | relative viability (COR-L 105; first compound 0.02 µM): 0.719 | relative viability (COR-L 105; first compound 0.2 µM): 0.485 | relative viability (COR-L 105; first compound 0.6325 µM): 0.635 | relative viability (COR-L 105; first compound 2 µM): 0.458 | relative viability (ChaGo-K-1; first compound 0.02 µM): 0.577 | relative viability (ChaGo-K-1; first compound 0.2 µM): 0.427 | relative viability (ChaGo-K-1; first compound 0.6325 µM): 0.579 | relative viability (ChaGo-K-1; first compound 2 µM): 0.542 | relative viability (EKVX; first compound 0.02 µM): 0.346 | relative viability (EKVX; first compound 0.6325 µM): 0.323 | relative viability (EKVX; first compound 2 µM): 0.211 | relative viability (H3255; first compound 0.02 µM): 0.605 | relative viability (H3255; first compound 0.2 µM): 0.587 | relative viability (H3255; first compound 0.6325 µM): 0.579 | relative viability (H3255; first compound 2 µM): 0.209 | relative viability (HARA; first compound 0.02 µM): 0.605 | relative viability (HARA; first compound 0.2 µM): 0.367 | relative viability (HARA; first compound 0.6325 µM): 0.465 | relative viability (HARA; first compound 2 µM): 0.381 | relative viability (HCC-827; first compound 0.02 µM): 0.359 | relative viability (HCC-827; first compound 0.2 µM): 0.225 | relative viability (HCC-827; first compound 0.6325 µM): 0.19 | relative viability (HCC-827; first compound 2 µM): 0.151 | relative viability (HOP-62; first compound 0.02 µM): 0.222 | relative viability (HOP-62; first compound 0.2 µM): 0.188 | relative viability (HOP-62; first compound 0.6325 µM): 0.197 | relative viability (HOP-62; first compound 2 µM): 0.185 | relative viability (LCLC-103H; first compound 0.02 µM): 0.774 | relative viability (LCLC-103H; first compound 0.2 µM): 0.653 | relative viability (LCLC-103H; first compound 0.6325 µM): 0.72 | relative viability (LCLC-103H; first compound 2 µM): 0.716 | relative viability (LOU-NH91; first compound 0.02 µM): 0.778 | relative viability (LOU-NH91; first compound 0.2 µM): 0.665 | relative viability (LOU-NH91; first compound 0.6325 µM): 0.715 | relative viability (LOU-NH91; first compound 2 µM): 0.641 | relative viability (NCI-H1975; first compound 0.02 µM): 0.45 | relative viability (NCI-H1975; first compound 0.2 µM): 0.37 | relative viability (NCI-H1975; first compound 0.6325 µM): 0.386 | relative viability (NCI-H1975; first compound 2 µM): 0.338 | relative viability (NCI-H2126; first compound 0.02 µM): 0.61 | relative viability (NCI-H2126; first compound 0.2 µM): 0.567 | relative viability (NCI-H2126; first compound 0.6325 µM): 0.551 | relative viability (NCI-H2126; first compound 2 µM): 0.454 | relative viability (NCI-H23; first compound 0.02 µM): 0.208 | relative viability (NCI-H23; first compound 0.6325 µM): 0.29 | relative viability (NCI-H23; first compound 2 µM): 0.212 | relative viability (NCI-H2405; first compound 0.02 µM): 0.698 | relative viability (NCI-H2405; first compound 0.2 µM): 0.717 | relative viability (NCI-H2405; first compound 0.6325 µM): 0.583 | relative viability (NCI-H2405; first compound 2 µM): 0.4 | relative viability (NCI-H3122; first compound 0.02 µM): 0.365 | relative viability (NCI-H3122; first compound 0.2 µM): 0.375 | relative viability (NCI-H3122; first compound 0.6325 µM): 0.314 | relative viability (NCI-H3122; first compound 2 µM): 0.294 | relative viability (NCI-H596; first compound 0.02 µM): 0.912 | relative viability (NCI-H596; first compound 0.2 µM): 0.793 | relative viability (NCI-H596; first compound 0.6325 µM): 0.951 | relative viability (NCI-H596; first compound 2 µM): 0.821 | relative viability (NCI-H650; first compound 0.02 µM): 0.319 | relative viability (NCI-H650; first compound 0.2 µM): 0.3 | relative viability (NCI-H650; first compound 0.6325 µM): 0.295 | relative viability (NCI-H650; first compound 2 µM): 0.288 | relative viability (NCI-H661; first compound 0.02 µM): 0.563 | relative viability (NCI-H661; first compound 0.2 µM): 0.434 | relative viability (NCI-H661; first compound 0.6325 µM): 0.534 | relative viability (NCI-H661; first compound 2 µM): 0.403 | relative viability (NCI-H727; first compound 0.02 µM): 0.917 | relative viability (NCI-H727; first compound 0.2 µM): 0.894 | relative viability (NCI-H727; first compound 0.6325 µM): 0.992 | relative viability (NCI-H727; first compound 2 µM): 0.712 | relative viability (PC-3 [JPC-3]; first compound 0.02 µM): 0.824 | relative viability (PC-3 [JPC-3]; first compound 0.2 µM): 0.711 | relative viability (PC-3 [JPC-3]; first compound 0.6325 µM): 0.695 | relative viability (PC-3 [JPC-3]; first compound 2 µM): 0.555 | relative viability (SK-LU-1; first compound 0.02 µM): 0.546 | relative viability (SK-LU-1; first compound 0.2 µM): 0.526 | relative viability (SK-LU-1; first compound 0.6325 µM): 0.594 | relative viability (SK-LU-1; first compound 2 µM): 0.405 | relative viability (SW 900; first compound 0.02 µM): 0.544 | relative viability (SW 900; first compound 0.2 µM): 0.384 | relative viability (SW 900; first compound 0.6325 µM): 0.399 | relative viability (SW 900; first compound 2 µM): 0.635
